Measurements: ChEMBL document CHEMBL1201862, “PubChem BioAssay data set” (2004)
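Protocol summary: plate cells (96-well), add compound at 5 concentrations, incubate 48 h, interpolate endpoints linearly. Here, GI50 denotes the concentration required for 50% inhibition of growth.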 The source made the active and inactive calls. No stated cut-off is given here; in the data, active = GI50 up to about 1.1 µM and inactive = higher.

What was measured:
Experiment in all cases: growth of human tumour cells (NCI), 48 h
DMS-114 = test system: DMS-114
SF-268 = test system: SF-268
EKVX = test system: EKVX
SNB-19 = test system: SNB-19
ACHN = test system: ACHN
HOP-92 = test system: HOP-92
DLD-1 = test system: DLD-1
UACC-62 = test system: UACC-62
HCC 2998 = test system: HCC 2998
HOP-62 = test system: HOP-62
NCI-H23 = test system: NCI-H23
SNB-78 = test system: SNB-78
CCRF-CEM = test system: CCRF-CEM
SN12C = test system: SN12C
KM-20L2 = test system: KM-20L2
TK-10 = test system: TK-10
Malme-3M = test system: Malme-3M
RPMI-8226 = test system: RPMI-8226
COLO 205 = test system: COLO 205
XF498 = test system: XF498
A549 = test system: A549
NCI-H460 = test system: NCI-H460
OVCAR-4 = test system: OVCAR-4
RXF 631 = test system: RXF 631
HCT-116 = test system: HCT-116
SK-MEL-5 = test system: SK-MEL-5
OVCAR-3 = test system: OVCAR-3
SK-MEL-28 = test system: SK-MEL-28
UACC-257 = test system: UACC-257
SW-620 = test system: SW-620
K562 = test system: K562
HT-29 = test system: HT-29
M19-MEL = test system: M19-MEL
DMS-273 = test system: DMS-273
MOLT-4 = test system: MOLT-4
U-251 = test system: U-251
KM12 = test system: KM12
SK-MEL-2 = test system: SK-MEL-2
A498 = test system: A498
SK-OV-3 = test system: SK-OV-3
SNB-75 = test system: SNB-75
HCT-15 = test system: HCT-15
LXFL 529 = test system: LXFL 529
SF-295 = test system: SF-295
IGROV-1 = test system: IGROV-1
LOX IMVI = test system: LOX IMVI
UO-31 = test system: UO-31
OVCAR-5 = test system: OVCAR-5
M14 = test system: M14
786-0 = test system: 786-0
SF-539 = test system: SF-539
OVCAR-8 = test system: OVCAR-8
NCI-H522 = test system: NCI-H522

NC(=O)c1c(-c2ccccc2)c(-c2ccccc2)cc2c(=O)c3ccccc3[nH]c12
GI50 (DMS-114): 21.8 µM (inactive) | GI50 (SF-268): 39 µM (inactive) | GI50 (EKVX): 41.2 µM (inactive) | GI50 (SNB-19): 21 µM (inactive) | GI50 (ACHN): 16.4 µM (inactive) | GI50 (HOP-92): 24.9 µM (inactive) | GI50 (DLD-1): 35.3 µM (inactive) | GI50 (UACC-62): 25.5 µM (inactive) | GI50 (HCC 2998): 43.2 µM (inactive) | GI50 (HOP-62): 24.2 µM (inactive) | GI50 (NCI-H23): 17.5 µM (inactive) | GI50 (SNB-78): 22.3 µM (inactive) | GI50 (CCRF-CEM): 31.4 µM (inactive) | GI50 (SN12C): 40 µM (inactive) | GI50 (KM-20L2): 21 µM (inactive) | GI50 (TK-10): 18.5 µM (inactive) | GI50 (Malme-3M): 17.9 µM (inactive) | GI50 (RPMI-8226): 28.4 µM (inactive) | GI50 (COLO 205): 29 µM (inactive) | GI50 (XF498): 18 µM (inactive) | GI50 (A549): 23.8 µM (inactive) | GI50 (NCI-H460): 22.2 µM (inactive) | GI50 (OVCAR-4): 12.5 µM (inactive) | GI50 (RXF 631): 27.4 µM (inactive) | GI50 (HCT-116): 14.4 µM (inactive) | GI50 (SK-MEL-5): 13.7 µM (inactive) | GI50 (OVCAR-3): 23.1 µM (inactive) | GI50 (SK-MEL-28): 17.8 µM (inactive) | GI50 (UACC-257): 40.6 µM (inactive) | GI50 (SW-620): 37.1 µM (inactive) | GI50 (K562): 30.3 µM (inactive) | GI50 (HT-29): 18.9 µM (inactive) | GI50 (M19-MEL): 27.6 µM (inactive) | GI50 (DMS-273): 19.9 µM (inactive) | GI50 (MOLT-4): 16.4 µM (inactive) | GI50 (U-251): 31.7 µM (inactive) | GI50 (KM12): 21.8 µM (inactive) | GI50 (SK-MEL-2): 19.9 µM (inactive) | GI50 (A498): 19.4 µM (inactive) | GI50 (SK-OV-3): 25.3 µM (inactive) | GI50 (SNB-75): 23.6 µM (inactive) | GI50 (HCT-15): 29.8 µM | GI50 (LXFL 529): 16.1 µM (inactive) | GI50 (SF-295): 40.4 µM (inactive) | GI50 (IGROV-1): 22.1 µM (inactive) | GI50 (LOX IMVI): 45.5 µM (inactive) | GI50 (UO-31): 33.7 µM (inactive) | GI50 (OVCAR-5): 65.8 µM (inactive) | GI50 (M14): 33.2 µM (inactive) | GI50 (786-0): 8.53 µM (inactive) | GI50 (SF-539): 17.5 µM (inactive) | GI50 (OVCAR-8): 20.8 µM (inactive) | GI50 (NCI-H522): 5.85 µM (inactive)
